# In patent US10934280B2, “Condensed thiophene derivatives useful as NaPi-IIb inhibitors” (Eli Lilly and Company, priority 2016, dated 2021):
# Experiments:
# murine NaPi-IIb = molecular target: T1, murine NaPi-IIb (Mus musculus, UniProt Q9DBP0); assay: Inhibition of 33P uptake in mouse NaPi-IIb T-REX-CHO stable cell line; type: cell-based; settings: 60 min at RT, geometric mean (SD), read-out: m NaPi-IIb rel IC50 (nM), (SD)
# T1 construct: expressed in transfected cells
# T1 sequence (Q9DBP0 1-697): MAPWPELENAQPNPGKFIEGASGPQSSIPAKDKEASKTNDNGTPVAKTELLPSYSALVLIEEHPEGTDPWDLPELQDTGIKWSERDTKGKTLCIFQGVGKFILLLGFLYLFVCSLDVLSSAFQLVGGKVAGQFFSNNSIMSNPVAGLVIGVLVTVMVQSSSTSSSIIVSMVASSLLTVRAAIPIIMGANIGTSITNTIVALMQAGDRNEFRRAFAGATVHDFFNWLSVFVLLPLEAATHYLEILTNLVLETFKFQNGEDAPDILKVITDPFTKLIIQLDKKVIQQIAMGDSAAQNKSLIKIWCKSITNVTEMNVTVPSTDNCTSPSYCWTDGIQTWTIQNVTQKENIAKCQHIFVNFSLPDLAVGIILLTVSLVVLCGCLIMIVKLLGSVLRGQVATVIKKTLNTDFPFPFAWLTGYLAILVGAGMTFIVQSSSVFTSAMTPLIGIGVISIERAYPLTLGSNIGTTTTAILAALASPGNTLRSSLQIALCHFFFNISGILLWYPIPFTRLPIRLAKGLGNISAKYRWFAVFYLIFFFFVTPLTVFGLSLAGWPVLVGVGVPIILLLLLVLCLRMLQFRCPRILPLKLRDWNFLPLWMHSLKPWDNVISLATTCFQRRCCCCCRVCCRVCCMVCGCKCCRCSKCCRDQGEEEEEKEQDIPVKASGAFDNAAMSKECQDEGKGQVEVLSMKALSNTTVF
# Method: Inhibition of ^33P uptake is measured in human and mouse NaPi-IIb T-REX™-CHO stable cell lines. cDNA for NaPi-IIb is subcloned in plasmid SLC34A2 pcDNA5/TO (human) and SLC34A2 pcDNA5/TO (mouse) and stable cell lines are generated from clonal isolation for both human and mouse respectively. Mouse and human stable lines are maintained in continuous culture in growth media (Dulbecco's Modified Eagle Medium: Nutrient Mixture F-12 (3:1), 10% Heat Inactivated FBS, 1% penicillin/streptomycin/FUNGIEZONE® (HYCLONE™), 20 mM HEPES, 250 μg/mL hygromycin, 5 μg/mL blasticidin). Cells are harvested from T225 cell culture flasks (CORNING®) using 0.25% Trypsin, and plated in 96 well CYTOSTAR-T™ scintillating microplates (Amersham Systems) at 40,000 cells/well in 100 μL of growth media plus 100 ng/mL of tetracycline. Cell plates are incubated overnight at 37° C. and 5% C02. The next day, compounds are serially diluted using one to three dilutions in 100% DMSO. Cell plates may remain in the incubator until ready to be assayed. A cell plate is removed from the incubator and media removed. Cells are washed 3 times with 200 μL assay buffer (137 mM NaCl, 5.4 mM KCl, 2.8 mM CaCl2), 1.2 mM MgSO4, and 14 mM Tris-HCl buffer, pH˜7.5), removing buffer in between washes. Serially diluted compounds in DMSO are further diluted 50 fold in assay buffer and 50 μL added to the CYTOSTAR-T™ assay plate, immediately followed by the addition of 50 μL of ^33P solution (PERKIN-ELMER®, Walton, Mass.; 0.05 μCi/50 μL). CYTOSTAR-T™ assay plates are covered with foil to protect from light and incubated for 60 min at RT. After the 60 min incubation, 100 μL of a stop solution (assay buffer+400 μM Phloretin) is added to the assay plate to stop ^33P uptake. The plate is immediately read on a Wallac MICROBETA® Trilux liquid scintillation counter and luminometer after stop solution is added with 1 minute count per well. Each plate may be processed separately and staggered in time so there may be no delay in counting after stop solution is added. Percent inhibition at all concentrations tested (final assay concentrations 100-0.005 μM) are calculated relative to 1% DMSO (minimum effect), and the effect of 100 μM of a fully efficacious NaPi-IIb inhibitor (maximum effect). IC50 values were calculated using a 4 parameter logistic curve fitting equation. The numbers presented are the geometric means with standard deviation (SD) calculated where n is the number of runs. Thus. Table 1 describes the relative IC50 values for Examples 1-28 against human NaPi-IIb and murine NaPi-IIb, respectively.
# human NaPi-IIb = molecular target: T2, human NaPi-IIb (Homo sapiens, UniProt O95436); assay: Inhibition of 33P uptake in human NaPi-IIb T-REX-CHO stable cell line; type: cell-based; settings: 60 min at RT, geometric mean (SD), read-out: h NaPi-IIb rel IC50 (nM), (SD)
# T2 construct: expressed in transfected cells
# T2 sequence (O95436 1-690): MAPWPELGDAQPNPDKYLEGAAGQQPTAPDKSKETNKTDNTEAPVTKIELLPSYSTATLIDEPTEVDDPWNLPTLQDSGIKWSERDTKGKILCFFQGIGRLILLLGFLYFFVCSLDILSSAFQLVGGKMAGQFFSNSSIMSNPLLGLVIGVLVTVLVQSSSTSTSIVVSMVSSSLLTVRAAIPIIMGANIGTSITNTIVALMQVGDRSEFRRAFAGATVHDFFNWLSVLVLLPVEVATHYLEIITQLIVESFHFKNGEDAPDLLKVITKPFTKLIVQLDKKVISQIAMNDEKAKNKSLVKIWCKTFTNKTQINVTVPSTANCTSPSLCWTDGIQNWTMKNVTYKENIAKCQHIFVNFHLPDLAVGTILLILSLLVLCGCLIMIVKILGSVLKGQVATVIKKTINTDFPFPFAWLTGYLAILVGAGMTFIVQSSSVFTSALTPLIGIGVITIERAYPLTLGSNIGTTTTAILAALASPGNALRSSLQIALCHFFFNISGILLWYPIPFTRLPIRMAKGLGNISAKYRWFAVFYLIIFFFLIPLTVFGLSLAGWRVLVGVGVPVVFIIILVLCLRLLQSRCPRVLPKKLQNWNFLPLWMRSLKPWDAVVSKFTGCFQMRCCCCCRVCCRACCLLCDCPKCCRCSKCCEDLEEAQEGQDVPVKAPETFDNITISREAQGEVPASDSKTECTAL
# Method: Inhibition of ^33P uptake is measured in human and mouse NaPi-IIb T-REX™-CHO stable cell lines. cDNA for NaPi-IIb is subcloned in plasmid SLC34A2 pcDNA5/TO (human) and SLC34A2 pcDNA5/TO (mouse) and stable cell lines are generated from clonal isolation for both human and mouse respectively. Mouse and human stable lines are maintained in continuous culture in growth media (Dulbecco's Modified Eagle Medium: Nutrient Mixture F-12 (3:1), 10% Heat Inactivated FBS, 1% penicillin/streptomycin/FUNGIEZONE® (HYCLONE™), 20 mM HEPES, 250 μg/mL hygromycin, 5 μg/mL blasticidin). […] Cell plates may remain in the incubator until ready to be assayed. […] The plate is immediately read on a Wallac MICROBETA® Trilux liquid scintillation counter and luminometer after stop solution is added with 1 minute count per well. […] Percent inhibition at all concentrations tested (final assay concentrations 100-0.005 μM) are calculated relative to 1% DMSO (minimum effect), and the effect of 100 μM of a fully efficacious NaPi-IIb inhibitor (maximum effect). IC50 values were calculated using a 4 parameter logistic curve fitting equation. The numbers presented are the geometric means with standard deviation (SD) calculated where n is the number of runs. […]
smiles,measurement,setting,value
"CN1CCN(CC(=O)N2C3CCC2CN(Cc2cccc(C(=O)Nc4sc5c(c4C(=O)Nc4cc(F)c(CCc6ccc(C(=O)O)cc6)c(F)c4)CCCC5)c2)C3)CC1 [Example 26, 4-[2-[2,6-difluoro-4-[[2-[[3-[[8-[2-(4-methylpiperazin-1-yl)acetyl]-3,8-diazabicyclo[3.2.1]octan-3-yl]methyl]benzoyl]amino]-4,5,6,7-tetrahydrobenzothiophene-3-carbonyl]amino]phenyl]ethyl]benzoic Acid]",IC50,murine NaPi-IIb,15.3 nM
same,IC50,human NaPi-IIb,2.4 nM
